Columns and labels:
H. pylori SS1 [1] = assay: H. pylori killing kinetics at various pHs (CFU counting, 1 h); type: cell-based, Helicobacter pylori
Experimental: H. pylori killing kinetics at various pHs. The killing kinetics of polypeptides were measured against H. pylori by counting the colony forming units (CFU) of alive bacteria with agar plating. The polypeptides at various concentrations were dissolved in the Tris-HC buffer at various pHs (pH 7.4, 4.0, 3.0). H. pylori were then collected and dispersed in the BB medium supplied with fresh urea (10 mM) and 10% FBS at different pHs (pH 7.4, 4.0, 3.0). The optical density at 600 nm of the bacteria were fixed at 0.1. The bacteria were then incubated with the polypeptides solution at corresponding pH in the incubator supplied with 10% CO2 at 37° C. Samples were taken for a series of ten-fold dilutions, and plated out in BB agar plates with 10% FBS and vancomycin (pH 7.4) after 1 h incubation. The plates were incubated for 72 h in the incubator and the bacteria were counted for CFU. Bacteria incubated with Tris-HCl buffer only at corresponding pH were served as 100% survival. Survival rate (%)=CFU of bacteria treated with polypeptides/CFU of bacteria treated with buffer×100%. The killing kinetics of antibiotics (OAC, omeprazole, amoxicillin, clarithromycin) against H. pylori were determined with a similar procedure. The antibiotics at various concentrations were dissolved in the Tris-HCl buffer at pH 7.4, or 3.0, and were then incubated with H. pylori in BB medium supplied with fresh urea (10 mM) and 10% FBS at corresponding pH in the incubator. After 1 h incubation, the bacteria were collected by centrifuge at 10,000 rcf for 5 min and washed with fresh BB medium. Samples were then taken for a series of ten-fold dilutions, and plated out in BB agar plates with 10% FBS and vancomycin. The plates were incubated for 72 h in the incubator and the bacteria were counted for CFU.

H. pylori SS1 [2] = assay: MIC of antibiotics against SS1; type: cell-based; conditions: Helicobacter pylori
[3] = Circular dichroism (CD) secondary structure of polypeptides at different pH; type: physicochemical; conditions: pH 7.4 or 3.0
Experimental: The secondary structure of the polypeptides at different pH value was then investigated by circular dichroism (CD). […] Distortion of helical conformation was noted when the pH was adjusted back to neutral (FIG. 1C).
The MALLS detector was calibrated using pure toluene and can be used for the determination of the absolute molecular weights (MWs). The MWs of polymers were determined based on the dn/dc value of each polymer sample calculated offline by using the internal calibration system processed by the ASTRA V software (version 5.1.7.3, Wyatt Technology, Santa Barbara, Calif., USA). Circular dichroism (CD) measurements were carried out on a JASCO J-815 CD spectrometer. The polymer samples were prepared at concentrations of 4.4 μM. The solution was placed in a quartz cell with a path length of 0.10 cm. The zeta-potential of polypeptides was evaluated by Malvern Zetasizer. Infrared spectra were recorded on a Perkin Elmer 100 serial FTIR spectrophotometer calibrated with polystyrene film. Lyophilization was performed on a FreeZonelyophilizer (Labconco, Kansas City, Mo., USA). UV light was generated from an OmiCure S1000 UV lamp (EXFO, Mississauga, Canada).

[4] = Liposome dye leakage assay (ANTS/DPX efflux)
Experimental: Liposome dye leakage assay. ANTS (12.5 mM) and DPX (45 mM) were dissolved in Tris buffer (pH=7.4). To a clean round-bottom flask, appropriate volumes of lipid stocks were added to make up 1 mL of CHCl3 (3:1 POPE (1-palmitoyl-2-oleoyl-sn-glycero-3-phosphoethanolamine)/POPG (1-palmitoyl-2-oleoyl-sn-glycero-3-phospho-(1′-rac-glycerol) (sodium salt)) vesicles, POPE (130 μL, 25 mg/mL CHCl3) and POPG (115 μL, 10 mg/mL CHCl3) were used). The solvent was removed by a stream of nitrogen gas to obtain a thin lipid film, which was then hydrated by 1 mL of ANTS/DPX solution. The mixture was left to hydrate for 1 h, after which it was subjected to 10 freeze-thaw cycles (using dry ice/acetone to freeze and warm water to thaw). The suspension was extruded 20 times through a polycarbonate membrane with 400 nm pore diameter. The excess dye was removed using Sephadex G-50 column as the eluent. The dye-filled vesicle fractions were diluted 200 times with Tris buffer. This suspension (90 μL) was subsequently mixed with polypeptide stock solutions (10 μL) at various pH (pH 7.4 or 4.0) on a 96-well black microplate (Greiner, flat bottom). Tris buffer (10 μL, pH 7.4 or 4.0) and Triton-X (0.1% v/v, 10 μL, pH 7.4 or 4.0) were employed as the negative and positive controls at corresponding pH, respectively. After 30 min, the fluorescence intensity in each well was recorded using the microplate reader with excitation and emission wavelengths of 380 and 520 nm, respectively. The percentage of leaked […] dye in each well was determined as follows: leakage (%)=[(F−F0)/(FTX−F0)]×100%, where F is the fluorescence intensity recorded in the well, F0 is the intensity in the negative control well, and FTX is the intensity in the positive control well.

H. pylori SS1 [5] = assay: SEM analysis of bacterial morphology; type: cell-based, Helicobacter pylori; conditions: 30 min
Experimental: SEM analysis. SS1 bacterial cells grown in BB with the supplement of 10% FBS under pH 7.4 or 4.0 with or without polypeptides (2.2 μM) treatment were performed using a similar protocol as killing kinetics measurements but with a 30 min incubation time. All the samples were collected into a microfuge tube and pelleted at 4000 rpm for 5 min, and then washed twice with phosphate-buffered saline. Subsequently, bacteria were fixed with paraformaldehyde solution (4%) for 1 h before proceeding, followed by washing with DI water. Dehydration was performed with a series of graded ethanol solution (10%, 25%, 50%, 75%, 95%, and 100%). The dehydrated samples were dried under vacuum overnight before being mounted on carbon tape and coated with gold-platinum for imaging using a Hitachi S-4700 High Solution SEM (Japan).

[6] = test system: clinical isolated H. pylori stains J99, J99A-7, J99A-9, J99A-11, J99C-8, J99D-1; assay: Growth (OD600) of clinical isolated H. pylori strains with antibiotics; type: cell-based, Helicobacter pylori; conditions: pH 7.4, 10% CO2, 37° C.
Experimental: FIG. 8. (A) The survival rate of H. pylori after incubation with amoxicillin (273.7 μM) and clarithromycin (133.7 μM) under pH 7.4 or 3.0 for 1 h. […] Concentrations of omeprazole, amoxicillin, and clarithromycin in OAC1 are 20.0 μM, 6.8 μM, and 1.9 μM, respectively; in OAC2 are 40.0 μM, 13.6 μM, and 3.8 μM, respectively; in OAC3 are 80.0 μM, 27.2 μM, and 7.6 μM, respectively. (C) The antibacterial activity of omeprazole (O) and a combination of amoxicillin and clarithromycin (AC) against SS1 at pH 3.0. O1, O2, O3 represents the concentration of omeprazole at 20.0 μM, 40.0 μM, and 80.0 μM, respectively. AC1, AC2, AC3 represents the concentration of amoxicillin and clarithromycin at 6.8 μM and 1.9 μM, 13.6 μM and 3.8 μM, 27.2 μM and 7.6 μM, respectively. The antibiotics were incubated with H. pylori strains for 1 h. The antibacterial activity of amoxicillin (D) and clarithromycin (E) against clinical isolated H. pylori stains, J99, J99A-7, J99A-9, J99A-11, J99C-8, J99D-1. The bacteria were incubated with antibiotics under pH 7.4 in the 10% CO2 incubator (37° C.), and the optical density at 600 nm (OD600) of bacteria were analyzed to determine the growth of bacteria. […] (G) The antibacterial activity of omeprazole (0) and a combination of amoxicillin and clarithromycin (AC) against J99D-1 under pH 3.0.

H. pylori SS1 [7] = assay: Anti-H. pylori efficacy in vivo (infected C57BL/6J mice); parameters: species or system Helicobacter pylori; conditions: oral gavage once daily for 3 d, 2.6 μmol/kg
Experimental: Anti-H. pylori efficacy in vivo. […] For triple therapy, mice were first administered omeprazole (a proton pump inhibitor) through oral gavage at a dose of 400 μmol/kg, followed by a lag time of 30 min before administration of amoxicillin (68.0 μmol/kg) and clarithromycin (19.1 μmol/kg). PL2 and PDL2 in 5% (vol/vol) DMSO (both at 2.6 μmol/kg) were administered through oral gavage once daily for a consecutive 3 d. Water solution with 5% DMSO was served as negative control group. Forty-eight hours after the last administration, mice were killed and the stomach was removed from the abdominal cavity. The stomach was cut along the greater curvature, and the gastric content was removed and rinsed with PBS. The stomach sections were used for assessment of bacterial colonization. For bacterial colonization, a gastric tissue section was suspended in 1 mL PBS and homogenized for H. pylori recovery. The homogenate was serially diluted and spotted onto Columbia agar plate containing vancomycin (20 μg/mL), amphotericin (2 μg/mL), bacitracin (30 μg/mL) and nalidixic acid (10 μg/mL). The plates were then incubated at 37° C. under microaerobic conditions for 5 d, and bacterial colonies were enumerated and adjusted for dilutions.

Row | Molecule | bactericidal activity against SS1 (H. pylori SS1 [1]; pH 3.0, 1 h incubation) | bacteria killed (H. pylori SS1 [1]; pH 7.4, 1 h incubation, 273.7 μM) [%] | MIC (H. pylori SS1 [2]) [µM] | secondary structure (CD), dependence on pH [3] | bactericidal activity against SS1 (H. pylori SS1 [1]; pH 7.4, 1 h incubation) | dye leakage from anionic liposomes ([4]; pH 4.0) | dye leakage from anionic liposomes ([4]; pH 7.4) | bacterial membrane/morphology by SEM (H. pylori SS1 [5]; pH 4.0, 2.2 μM) | bacterial membrane/morphology by SEM (H. pylori SS1 [5]; pH 7.4, 2.2 μM) | bacteria killed (H. pylori SS1 [1]; pH 7.4, 1 h incubation, 133.7 μM) [%] | susceptibility of J99A-7, J99A-11, J99C-8 and J99D-1 (growth, OD600) [6] | decrease of bacterial burden in the stomach as compared with the control group (H. pylori SS1 [7])
1 | CC1(C)S[C@@H]2[C@H](NC(=O)[C@H](N)c3ccc(O)cc3)C(=O)N2[C@H]1C(=O)O [amoxicillin, reference compound] | no bactericidal activity | ~40 | 0.13 |  |  |  |  |  |  |  |  | 
2 | (PHLG-MHH)20 [PL1] | killed H. pylori SS1 |  |  | stable helical conformation independent of pH change | killed H. pylori SS1 | notable dye leakage | notable dye leakage | membrane disruption | membrane disruption |  |  | 
3 | CC[C@H]1OC(=O)[C@H](C)[C@@H](O[C@H]2C[C@@](C)(OC)[C@@H](O)[C@H](C)O2)[C@H](C)[C@@H](O[C@@H]2O[C@H](C)C[C@H](N(C)C)[C@H]2O)[C@](C)(OC)C[C@@H](C)C(=O)[C@H](C)[C@@H](O)[C@]1(C)O [clarithromycin, reference compound] | no bactericidal activity |  | 0.07 |  |  |  |  |  |  | ~60 | resistant | 
4 | (PDLGA)20-r-(PHDLG-MHH)25 [PDL2] | unappreciable bactericidal activity |  |  | pH-independent non-helical conformation | unappreciable bactericidal activity | unappreciable dye leakage | unappreciable dye leakage | did not affect the morphology of bacteria | did not affect the morphology of bacteria |  |  | no significant decrease of bacterial burden

Source: patent US11225507B2, “Conformation switchable antimicrobial peptides and methods of using the same” (priority 2017, dated 2022)
